Experimental data from ChEMBL document CHEMBL1148266, “Synthesis and mitochondrial complex I inhibition of dihydroxy-cohibin A, non-THF annonaceous acetogenin analogue” (Bioorg Med Chem Lett, 2004).

Species: Bos taurus
Assay: Inhibition concentration was evaluated in NADH oxidase assay using bovine heart submitochondrial particles
Format: functional

IC50 [nM]	Structure (SMILES)
4100	CCCCCCCCCCCC[C@H](OCOC)[C@H](CC[C@@H](OCOC)[C@H](O)CCCCCCCCCCCCC1=C[C@H](C)OC1=O)OCOC
20	CCCCCCCCCCCC[C@H](O)[C@@H](O)CC[C@@H](O)[C@H](O)CCCCCCCCCCCCC1=C[C@H](C)OC1=O [DIHYDROXY-COHIBIN A]
